Test results from patent US20060116354A1, “Antineoplastic ether lipid compounds with modifications at the sn-3 carbon” (priority 2003, published 2006).

Tested on: platelets
Experimental: Briefly, whole citrated blood is diluted 1:2 with sterile saline and placed in a warm chamber with a mini stir bar. An electronic probe, measuring electrical resistance, is inserted in the sample. The aggregometer is calibrated and the baseline is observed to detect any spontaneous aggregation. The test sample is added and allowed to run for at least 6 minutes. If the sample is an agonist the platelets will start to aggregate and stick to the electronic probe causing resistance across the electrodes to increase. This resistance, in ohms, is measured 6 minutes post addition of sample. The test samples are run at 25, 100, 200, 400 and 800 uM and compared to 100 uM L-ET-18-OCH3.
Collection of Blood Sample for in vitro Platelet Aggregation Testing: Venous blood is collected in 4.5 mL. Vacutainer tubes containing 0.129 M sodium citrate using a 21G needle or larger. Blood is immediately mixed by gentle inversion 15-20 times and kept at room temperature. Dilution ratio is 1 to 9 (3.8% citrate solution:blood). One (2.0 mL) Vacutainer tube containing EDTA is also collected for platelet counts. Complete blood counts (CBC) are measured on the CDC Technologies Hemavet 1500 to ensure that the test subject's platelets are within normal range. Any vials of hemolytic blood or blood containing any clots should be discarded. Platelet aggregation testing must be completed within 3 hours of blood collection. After this time the ability of platelets to aggregate decreases.
Cloudy solutions were warmed to ˜50° C. to dissolve and particles. Dilutions were prepared in PBS or saline at 40× concentration. (25 uL test sample are added to 1000 uL diluted blood (1:40)).

Row | SMILES | Relative Platelet Aggregation (Ohms) 25 μM [Ohms] | Relative Platelet Aggregation (Ohms) 100 μM [Ohms] | Relative Platelet Aggregation (Ohms) 200 μM [Ohms] | Platelet aggregation response (in words)
1 | CCCCCCCCCCCCCCCCCCOCC(COP(=O)([O-])OCC[N+](C)(C)C)OC [D-ET18OCH3, 1-O-octadecyl-2-O-methyl-glycerophosphocholine] | 0 | 0 | 0 | –
2 | CCCCCCCCCCCCCCCCCCOCC(COP(=O)([O-])OCC[N+](C)(C)C)OC [L-ET18OCH3, 1-O-octadecyl-2-O-methyl-glycerophosphocholine] | 13 | 14 | 12 | elicits a platelet aggregation response
